Experimental data: patent US20140309184A1, “METHODS AND COMPOSITIONS FOR THE TREATMENT OF OVARIAN CANCER” (UNIVERSITY OF SOUTH ALABAMA, priority 2011, published 2014)

Legend:
[1] = test system: A2780 cells; experiment: Carboplatin IC50 in platinum sensitive cell line; type: cell-based; settings: read-out: IC50 dose of carboplatin
Description: (§1) Considering the synergy described above and that the Hedgehog pathway is associated with cancer stem cell properties. In the effect of BMS-833923 plus carboplatin in two isogenic ovarian cancer cell lines specifically designed to evaluate platinum resistance mechanisms: A2780 (platinum sensitive) & A2780/CP70 (platinum resistant). Each cell line was evaluated to determine the IC50 dose of carboplatin to ensure a discernable difference in platinum treatment could be determined (FIG. 11A). The A2780/CP70 cell line required a 4-fold increase in carboplatin to reach IC50 (A2780/CP70=400 μM; A2780=100 μM). […] (FIG. 11B and FIG. 11C).

[2] = test system: SHH; experiment: Quantitative real time PCR in carboplatin treated SKOV3 cells; type: cell-based; settings: SKOV3, various concentrations of carboplatin
Description: SKOV3 cells were treated with various concentrations of carboplatin and the levels of SHH, Smo, PTCH, and Gli1 determined using quantitative real time PCR. Carboplatin treatment unregulated SHH (FIG. 14).

[3] = test system: SKOV3 cells; experiment: MTS cell survival with BMS-833923 plus chemotherapy, Calcusyn combination index; type: cell-based
Description: An MTS in vitro assay was performed using chemotherapy agents commonly used for ovarian cancer (carboplatin, paclitaxel, gemcitabine, topotecan and liposomal doxorubicin) with or without BMS-833923. Ovarian cancer cells ES2, SKOV3, OV90 and TOV112D were seeded at a density of 4,000 cells/well in 96-well tissue culture plates. The following day, fresh medium was added to each well and treated with IC50 concentrations of BMS-833923 as well as the aforementioned chemotherapies and kept at 37° C. in a humidified 5% CO2 atmosphere. Every 24 hr, 20 μl/well of MTS reagent were added in 96 well plates and stored in 37° C. incubator for about 3 hr followed by absorbance reading at 490 nm. The assay was carried out up to 72 hrs at various concentrations described herein.
With a cross-diagonal multidrug treatment design, the combination index (CI) was calculated to determine mathematical synergy using the median effect method per Calcusyn software (Biosoft, Ferguson, Mo.). This software utilizes multiple drug dose-effect calculations using the Median Effect methods (Chou T. C., et al., Trends Pharmacol. Sci. 4, 450-454). […] The fraction of cells affected (Fa) by carboplatin and BMS-833923 was used to calculate dose response curves and the CI. Statistically Calcusyn quantifies phenomena such as synergism vs. additive effects as well as inhibition (antagonism). Calcusyn software defines synergy as a CI value<1 with the extent of synergism stratified as follows: Possible Synergy: 1.0-0.91; Moderate Synergy: […]; and Clear Synergy: 0.7-0.3. A CI=1 may be indicative of additivity; a CI>1 may be indicative of antagonism.
Combination indices were calculated to determine mathematical synergy using the median effect method per Calcusyn software (Biosoft, Ferguson, Mo.) as described above. Monolayers of SKOV3 cells were contacted with various chemotherapeutic agents, and BMS-833923 in combination with various chemotherapeutic agents. The chemotherapeutic agents included Carboplatin, Taxol™, Gemzar™, Topotecan (Hycamtim™), and Doxil™. The percentage survival of the contacted SKOV3 cells was measured over 72 hours. Synergistic effects were calculated statistically using Calcusyn™ Software. A combination index (CI) less than 1 indicates synergy; a CI equal to 1 indicates additivity; a CI greater than 1 indicated antagonism.
Combination indices were calculated to determine mathematical synergy using the median effect method per Calcusyn software (Biosoft, Ferguson, Mo.) as described above. […] Per prior definitions this represents Clear Synergy defined as CI<0.7. This level of synergy would result in a 2- to 14-fold reduction of carboplatin dose required with the addition of BMS-833923. (Table 5 and FIG. 9).
The dose reduction index (DRI) was determined for experimental values using the Calcusyn software package, with the relative CI and the fraction affected to determine the relative reduction in a dose to achieve similar effects with a single agent (Table 6).

[4] = test system: A2780/CP70 cells; experiment: Carboplatin IC50 with and without BMS-833923 in platinum resistant cell line; type: cell-based
Description: as §1

[5] = MTD for combination therapy; type: in vivo; settings: BMS-833923 + carboplatin given together; previously demonstrated
Description: Treatment with BMS-833923 appeared to have little effect on the growth of A2780 xenografts in vivo.

[6] = test system: A2780 xenografts; experiment: Xenograft tumor growth, carboplatin-sensitive model; type: in vivo; settings: SCID mice; BMS-833923 100 mg/kg i.p. daily, Carboplatin 40 mg/kg i.p. twice a week, two weeks
Description: (§2) Female SCID mice 6-8 weeks old were inoculated i.p. with 5×10^6 A2780 or A2780/CP70 cells suspended in 200 μL PBS (PH 7.4). Seven days later when the tumor reached a size of greater than 150 mm^3, the mice were randomly divided into 4 groups (8 mice per group) as follows: (1) PBS-treated control; (2) BMS-833923 alone (100 mg/kg, i.p. daily, two weeks); (3) Carboplatin alone (40 mg/kg, i.p. twice a week, two weeks); (4) Combination of BMS-833923 and Carboplatin treatment. Mice were weighed and tumor diameters were measured with calipers every 2-3 days for 20 days. The tumor volumes (mm^3) were calculated as (W^2×L)/2, where W and L are the minor and major diameters (in millimeters), respectively.
(§3) Xenograft experiments were performed as described above. Carboplatin was dosed days 7, 11, 14, 18; BMS-833923 was dosed days 8 through 20. The experiment was terminated due to excessive tumor size in vehicle and BMS-833923 treatment groups.

[7] = Percent body weight change in xenograft experiments; type: in vivo, SCID mice; settings: xenograft mice; BMS-833923 100 mg/kg i.p. daily, Carboplatin 40 mg/kg i.p. twice a week
Description: as §2
Xenograft experiments were performed as described above. […] However, under such dosage (100 mg/kg, i.p. daily, for two weeks), treatment with BMS-833923 appeared to have little effect on the growth of A2780 or A2780/CP70 xenografts in vivo (FIG. 13). […] However, this dosage has little effect on the growth of CP2780 xenografts in vivo.

[8] = test system: CP2780 xenografts; experiment: Xenograft tumor growth, carboplatin-resistant model; type: in vivo; settings: SCID mice; BMS-833923 100 mg/kg i.p. daily, Carboplatin 40 mg/kg i.p. twice a week, two weeks
Description: as §2, §3
The CP2780 was derived from the A2780 Ovarian tumor xenograft model by selection for resistance to cisplatin. The CP2780 growth appeared to be more robust than observed for parental A2780 model (FIG. 12B). Average tumor volume doubling time for CP2780 was estimated at 2 days. Doubling time for parental A2780 tumor model was estimated at 3 days. […]

Compound: N.N.O=C([O-])C1(C(=O)[O-])CCC1.[Pt+2] [Carboplatin, carboplatin]
- IC50 [1]: 100 µM
- SHH mRNA level [2]: unregulated
- Carboplatin DRI ([3]; fraction affected 16.6%): 14.869
- Carboplatin single agent dose to achieve the fraction affected ([3]; fraction affected 16.6%): 892.1349 µM
- Carboplatin DRI ([3]; fraction affected 29.1%): 8.06e+006
- Carboplatin single agent dose to achieve the fraction affected ([3]; fraction affected 29.1%): 5.642e+08 µM
- Carboplatin DRI ([3]; fraction affected 38.4%): 2.07e+010
- Carboplatin single agent dose to achieve the fraction affected ([3]; fraction affected 38.4%): 1.243e+12 µM
- Carboplatin DRI ([3]; fraction affected 41.8%): 2.45e+011
- Carboplatin single agent dose to achieve the fraction affected ([3]; fraction affected 41.8%): 1.716e+13 µM
- increase in carboplatin to reach IC50, A2780/CP70 versus A2780 [4]: 4 fold
- IC50 ([4]; A2780/CP70 (platinum resistant), read-out: IC50 dose of carboplatin): 400 µM
- MTD for combination therapy [5]: 40 mg/kg
- effect on growth of A2780 xenografts in vivo [6]: inhibited growth
- Percent body weight change [7]: Combination<Carboplatin alone<BMS-833923 alone
- effect on growth of CP2780 (A2780/CP70) xenografts in vivo [8]: little effect
